Target: T1, human Fatty Acid Synthase (Homo sapiens, UniProt P49327)
T1 construct: made in house
Experiment: Human FAS enzyme assay (decrease in NADPH fluorescence)
Format: biochemical
Conditions: for inhibition at 100 µM: % inhibition at a concentration of 100 micromolar; for IC50s in the range of about 0.001 μM to about 30 μM: compounds excluded from the claims by proviso
How it was run: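 In-house human FAS (0.4 μg) was preincubated 15 min at RT with compound and NADPH (added at 166.6 μM) in 0.1 M Tris pH 7.5, 1 mM glutathione, 0.05% BSA. Malonyl-/acetyl-CoA (500/150 μM in substrate mix) was then added for 60 min. Readout was NADPH fluorescence loss (ex 340/em 460) over a time-zero read, with IC50 from a sigmoid fit.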

T1 sequence (P49327 whole entry): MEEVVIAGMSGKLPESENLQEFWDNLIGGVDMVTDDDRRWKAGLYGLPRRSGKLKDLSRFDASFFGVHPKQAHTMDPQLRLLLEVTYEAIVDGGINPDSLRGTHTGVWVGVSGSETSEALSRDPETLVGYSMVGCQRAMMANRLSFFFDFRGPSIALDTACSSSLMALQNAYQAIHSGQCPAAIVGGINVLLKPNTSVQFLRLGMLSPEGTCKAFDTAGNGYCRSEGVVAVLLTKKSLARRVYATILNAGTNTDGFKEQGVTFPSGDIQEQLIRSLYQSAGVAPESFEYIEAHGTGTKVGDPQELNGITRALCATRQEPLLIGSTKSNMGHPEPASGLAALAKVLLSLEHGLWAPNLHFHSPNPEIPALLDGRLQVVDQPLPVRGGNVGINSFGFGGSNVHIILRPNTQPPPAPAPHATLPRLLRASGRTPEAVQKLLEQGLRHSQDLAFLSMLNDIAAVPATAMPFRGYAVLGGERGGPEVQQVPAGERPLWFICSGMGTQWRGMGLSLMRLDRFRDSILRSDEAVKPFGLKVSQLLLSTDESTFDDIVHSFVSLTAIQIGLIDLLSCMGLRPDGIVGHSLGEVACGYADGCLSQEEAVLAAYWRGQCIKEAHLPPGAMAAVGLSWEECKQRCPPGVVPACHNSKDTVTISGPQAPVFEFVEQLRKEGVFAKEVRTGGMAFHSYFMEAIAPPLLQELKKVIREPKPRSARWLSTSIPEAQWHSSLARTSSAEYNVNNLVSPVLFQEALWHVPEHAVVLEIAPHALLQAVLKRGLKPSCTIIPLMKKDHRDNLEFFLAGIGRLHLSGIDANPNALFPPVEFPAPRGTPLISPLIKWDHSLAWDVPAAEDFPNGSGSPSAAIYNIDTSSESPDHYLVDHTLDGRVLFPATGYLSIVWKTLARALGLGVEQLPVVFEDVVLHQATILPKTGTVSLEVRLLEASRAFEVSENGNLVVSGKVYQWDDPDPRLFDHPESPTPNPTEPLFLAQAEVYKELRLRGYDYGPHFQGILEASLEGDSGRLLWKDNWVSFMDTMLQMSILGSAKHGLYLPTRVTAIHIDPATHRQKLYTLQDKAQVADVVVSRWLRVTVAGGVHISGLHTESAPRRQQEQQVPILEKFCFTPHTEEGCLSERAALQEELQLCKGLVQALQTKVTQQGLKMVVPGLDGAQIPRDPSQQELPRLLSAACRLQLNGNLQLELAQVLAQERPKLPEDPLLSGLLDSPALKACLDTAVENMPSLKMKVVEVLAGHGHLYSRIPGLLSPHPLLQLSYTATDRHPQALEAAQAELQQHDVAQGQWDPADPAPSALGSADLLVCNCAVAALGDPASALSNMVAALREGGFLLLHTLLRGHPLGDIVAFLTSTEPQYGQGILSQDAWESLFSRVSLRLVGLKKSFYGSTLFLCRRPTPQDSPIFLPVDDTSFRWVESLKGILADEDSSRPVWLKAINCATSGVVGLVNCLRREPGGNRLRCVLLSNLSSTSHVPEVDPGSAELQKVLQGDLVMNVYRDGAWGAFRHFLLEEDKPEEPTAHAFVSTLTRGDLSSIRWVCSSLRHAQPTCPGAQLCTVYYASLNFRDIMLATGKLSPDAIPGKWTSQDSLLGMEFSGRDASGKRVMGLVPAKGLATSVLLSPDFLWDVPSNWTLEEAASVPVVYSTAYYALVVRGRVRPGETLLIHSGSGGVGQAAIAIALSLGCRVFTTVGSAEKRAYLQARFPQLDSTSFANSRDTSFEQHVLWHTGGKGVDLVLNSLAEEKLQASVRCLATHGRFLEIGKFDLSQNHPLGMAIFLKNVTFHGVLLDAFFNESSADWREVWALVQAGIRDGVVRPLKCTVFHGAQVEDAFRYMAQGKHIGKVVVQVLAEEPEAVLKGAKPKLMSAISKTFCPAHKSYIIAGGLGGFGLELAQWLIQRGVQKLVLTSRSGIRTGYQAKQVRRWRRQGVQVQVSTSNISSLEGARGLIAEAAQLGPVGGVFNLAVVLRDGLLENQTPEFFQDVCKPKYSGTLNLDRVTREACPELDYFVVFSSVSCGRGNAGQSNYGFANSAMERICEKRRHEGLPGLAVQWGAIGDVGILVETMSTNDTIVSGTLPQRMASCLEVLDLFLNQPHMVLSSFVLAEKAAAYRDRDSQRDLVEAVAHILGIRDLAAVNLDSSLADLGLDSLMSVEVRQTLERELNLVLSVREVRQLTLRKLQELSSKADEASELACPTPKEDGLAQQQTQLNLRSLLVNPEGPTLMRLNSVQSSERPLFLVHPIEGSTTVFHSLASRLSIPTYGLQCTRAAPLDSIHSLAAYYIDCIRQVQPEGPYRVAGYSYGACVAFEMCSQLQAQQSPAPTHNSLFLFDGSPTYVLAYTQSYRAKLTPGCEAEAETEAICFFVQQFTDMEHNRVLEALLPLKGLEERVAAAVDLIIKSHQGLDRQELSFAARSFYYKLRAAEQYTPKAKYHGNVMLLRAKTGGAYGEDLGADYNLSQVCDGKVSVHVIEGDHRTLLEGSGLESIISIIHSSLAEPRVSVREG

SMILES | inhibition at 100 µM | other results
CCS(=O)(=O)NCc1ccc(C2CCN(C(=O)c3ccc(C)c(NS(C)(=O)=O)c3)CC2)cc1 [Example 227, N-[[4-[1-(3-methanesulfonamido-4-methylbenzoyl)piperidin-4-yl]phenyl]methyl]ethanesulfonamide] | 87.4% | 
CNC(=O)c1ccccc1S(=O)(=O)Nc1cc(C(=O)N2CCC(c3ccc(C#N)cc3)CC2)ccc1C [2-[[5-[4-(4-cyanophenyl)piperidine-1-carbonyl]-2-methylphenyl]sulfamoyl]-N-methylbenzamide] |  | IC50s in the range of about 0.001 μM to about 30 μM: do not have IC50s in the range of about 0.001 μM to about 30 μM
CS(=O)(=O)Nc1cc(C(=O)N2CCC(c3ccc(C#N)cc3)CC2)ccc1F [N-[5-[4-(4-cyanophenyl)piperidine-1-carbonyl]-2-fluorophenyl]methanesulfonamide] |  | IC50s in the range of about 0.001 μM to about 30 μM: do not have IC50s in the range of about 0.001 μM to about 30 μM
C=CS(=O)(=O)Nc1cc(C(=O)N2CCC(c3ccc(C(N)=O)cc3)CC2)ccc1C [Example 104, 4-[1-[3-(ethenylsulfonylamino)-4-methyl-benzoyl]-4-piperidyl]benzamide] | 76% | 
Cc1ccc(C(=O)N2CCC(c3ccc(C#N)c(C(F)(F)F)c3)CC2)cc1NS(C)(=O)=O [N-[5-[4-[4-cyano-3-(trifluoromethyl)phenyl]piperidine-1-carbonyl]-2-methylphenyl]methanesulfonamide] |  | IC50s in the range of about 0.001 μM to about 30 μM: do not have IC50s in the range of about 0.001 μM to about 30 μM
Cc1ccc(C(=O)N2CCC(c3ccc(C#N)cc3)CC2)cc1NS(=O)(=O)c1ccc(=O)[nH]c1 [Example 102, N-[5-[4-(4-cyanophenyl)piperidine-1-carbonyl]-2-methyl-phenyl]-6-oxo-1H-pyridine-3-sulfonamide] | 81% | 
Cc1ccc(C(=O)N2CCC(c3ccc(OS(C)(=O)=O)cc3)CC2)cc1NS(C)(=O)=O [Example 185, [4-[1-(3-methanesulfonamido-4-methylbenzoyl)piperidin-4-yl]phenyl]methanesulfonate] | 80% | 
Cc1ccc(C(=O)N2CCC(c3ccc(C#N)cc3)CC2)cc1NS(=O)(=O)C1CCN(C(C)C)CC1 [Example 120, N-[5-[4-(4-cyanophenyl)piperidine-1-carbonyl]-2-methyl-phenyl]-1-propan-2-yl-piperidine-4-sulfonamide] | 94% | 
Cc1ccc(C(=O)N2CCC(c3ccc(C#N)cc3)CC2)cc1NS(=O)(=O)c1ccc(C#N)cc1 [Example 23, 4-cyano-N-[5-[4-(4-cyanophenyl)piperidine-1-carbonyl]-2-methyl-phenyl]benzenesulfonamide] | 89% | 
Cc1ccc(C(=O)N2CCC(c3ccc(S(=O)(=O)N4CCN(C)CC4)cc3)CC2)cc1NS(C)(=O)=O [N-[2-methyl-5-[4-[4-(4-methylpiperazin-1-yl)sulfonylphenyl]piperidine-1-carbonyl]phenyl]methanesulfonamide] |  | IC50s in the range of about 0.001 μM to about 30 μM: do not have IC50s in the range of about 0.001 μM to about 30 μM
Cc1ccc(C(=O)N2CCC(c3ccc(C#N)cc3)CC2)cc1NS(=O)(=O)c1ccc(Cl)s1 [Example 19, 5-chloro-N-[5-[4-(4-cyanophenyl)piperidine-1-carbonyl]-2-methyl-phenyl]thiophene-2-sulfonamide] | 96% | 
Cc1ccc(C(=O)N2CCC(c3cccc(Cl)c3)CC2)cc1NS(C)(=O)=O [N-[5-[4-(3-chlorophenyl)piperidine-1-carbonyl]-2-methylphenyl]methanesulfonamide] |  | IC50s in the range of about 0.001 μM to about 30 μM: do not have IC50s in the range of about 0.001 μM to about 30 μM
Cc1ccc(C(=O)N2CCC(c3ccc(C#N)cc3)CC2)cc1NS(=O)(=O)CCNS(C)(=O)=O [Example 77, N-[5-[4-(4-cyanophenyl)piperidine-1-carbonyl]-2-methyl-phenyl]-2-methanesulfonamido-ethanesulfonamide] | 98% | 
C=CS(=O)(=O)Nc1cc(C(=O)N2CCC(c3ccc(C#N)cc3)CC2)ccc1C [Example 98, N-[5-[4-(4-cyanophenyl)piperidine-1-carbonyl]-2-methyl-phenyl]ethenesulfonamide] | 110% | 
COc1ccc(NS(=O)(=O)Cc2ccccc2)cc1C(=O)N1CCC(c2ccc(C#N)cc2)CC1 [Example 31, N-[3-[4-(4-cyanophenyl)piperidine-1-carbonyl]-4-methoxy-phenyl]-1-phenyl-methanesulfonamide] | 83% | 
CCn1ncc(S(=O)(=O)Nc2cc(C(=O)N3CCC(c4ccc(C#N)cc4)CC3)ccc2C)c1C [Example 142, N-[5-[4-(4-cyanophenyl)piperidine-1-carbonyl]-2-methyl-phenyl]-1-ethyl-5-methyl-pyrazole-4-sulfonamide] | 98% | 
Cc1ccc(C(=O)N2CCC(c3ccc(S(N)(=O)=O)cc3)CC2)cc1NS(C)(=O)=O [Example 186, 4-[1-(3-methanesulfonamido-4-methylbenzoyl)piperidin-4-yl]benzenesulfonamide] | 99% | 

SMILES | inhibition at 100 µM | other results
C=CCS(=O)(=O)Nc1cc(C(=O)N2CCC(c3ccc(C#N)cc3)CC2)ccc1C [Example 146, N-(5-(4-(4-cyanophenyl)piperidine-1-carbonyl)-2-methylphenyl)prop-2-ene-1-sulfonamide] | 90% | 
Cc1ccc(NS(=O)(=O)Cc2cccc(F)c2)cc1C(=O)N1CCC(c2ccc(C#N)cc2)CC1 [Example 52, N-[3-[4-(4-cyanophenyl)piperidine-1-carbonyl]-4-methyl-phenyl]-1-(3-fluorophenyl)methanesulfonamide] | 91% | 
Cc1ccc(C(=O)N2CCC(c3ccc(C#N)cc3)CC2)cc1NS(=O)(=O)c1ccccc1C(=O)N1CCOCC1 [Example 111, N-[5-[4-(4-cyanophenyl)piperidine-1-carbonyl]-2-methyl-phenyl]-2-(morpholine-4-carbonyl)benzenesulfonamide] | 80% | 
Cc1ccc(C(=O)N2CCC(c3ccc(CNC(=O)CC(C)C)cc3)CC2)cc1NS(C)(=O)=O [Example 236, N-[[4-[1-(3-methanesulfonamido-4-methylbenzoyl)piperidin-4-yl]phenyl]methyl]-3-methylbutanamide] | 59.8% | 
Cc1ccc(C(=O)N2CCC(c3ccc(C#N)cc3)CC2)cc1NS(=O)(=O)CC1(C)NC(=O)NC1=O (stereo in doubt) [Example 147, N-[5-[4-(4-cyanophenyl)piperidine-1-carbonyl]-2-methyl-phenyl]-1-[(4R)-4-methyl-2,5-dioxo-imidazolidin-4-yl]methanesulfonamide] | 98% | 
COCCOCC#Cc1ccc(C2CCN(C(=O)c3ccc(C)c(NS(C)(=O)=O)c3)CC2)cc1 [Example 247, N-[5-[4-[4-[3-(2-methoxyethoxy)prop-1-ynyl]phenyl]piperidine-1-carbonyl]-2-methylphenyl]methanesulfonamide] |  | IC50 (unit inferred): 1780 nM
Cc1ccc(C(=O)N2CCC(c3ccc(C#N)cc3)CC2)cc1NS(=O)(=O)CCNC(=O)c1ccccc1 [Example 86, N-[2-[[5-[4-(4-cyanophenyl)piperidine-1-carbonyl]-2-methyl-phenyl]sulfamoyl]ethyl]benzamide] | 100% | 
CS(=O)(=O)Nc1cccc(C(=O)N2CCC(c3ccc(C#N)cc3)CC2)c1 [Example 203, N-[3-[4-(4-cyanophenyl)piperidine-1-carbonyl]phenyl]methanesulfonamide] | 71% | 
COc1ccc(NS(C)(=O)=O)cc1C(=O)N1CCC(c2ccc(C#N)cc2)CC1 [Example 197, N-[3-[4-(4-cyanophenyl)piperidine-1-carbonyl]-4-methoxyphenyl]methanesulfonamide] | 71% | 
Cc1ccc(C(=O)N2CCC(c3ccc(S(=O)(=O)NCCO)cc3)CC2)cc1NS(C)(=O)=O [Example 220, N-(2-hydroxyethyl)-4-[1-(3-methanesulfonamido-4-methylbenzoyl)piperidin-4-yl]benzenesulfonamide] | 85% | 
Cc1ccc(C(=O)N2CCC(c3ccccc3)CC2)cc1NS(=O)(=O)c1ccc(Cl)cc1 [4-chloro-N-[2-methyl-5-(4-phenylpiperidine-1-carbonyl)phenyl]benzenesulfonamide] |  | IC50s in the range of about 0.001 μM to about 30 μM: do not have IC50s in the range of about 0.001 μM to about 30 μM
Cc1ccc(C(=O)N2CCC(c3ccc(C#N)cc3)CC2)cc1NS(=O)(=O)C1CCN(C(=O)OCc2ccccc2)C1 (stereo not shown) [Benzyl 3-[[5-[4-(4-cyanophenyl)piperidine-1-carbonyl]-2-methylphenyl]sulfamoyl]pyrrolidine-1-carboxylate] |  | IC50s in the range of about 0.001 μM to about 30 μM: do not have IC50s in the range of about 0.001 μM to about 30 μM
Cc1cc(C2CCN(C(=O)c3ccc(C)c(NS(C)(=O)=O)c3)CC2)ccc1C#N [Example 217, N-[5-[4-(4-cyano-3-methylphenyl)piperidine-1-carbonyl]-2-methylphenyl]methane-sulfonamide] | 60% | 
COC(=O)c1ccccc1S(=O)(=O)Nc1cc(C(=O)N2CCC(c3ccc(C#N)cc3)CC2)ccc1C [Example 108, methyl 2-[[5-[4-(4-cyanophenyl)piperidine-1-carbonyl]-2-methyl-phenyl]sulfamoyl]benzoate] | 78% | 
Cc1ccc(C(=O)N2CCC(c3ccc(C#N)cc3)CC2)cc1NS(=O)(=O)CCCNC(C)C [Example 73, N-[5-[4-(4-cyanophenyl)piperidine-1-carbonyl]-2-methyl-phenyl]-3-(propan-2-ylamino)propane-1-sulfonamide] | 94% | 
Cc1ccc(C(=O)N2CCC(c3ccc(C#N)c(F)c3)CC2)cc1NS(C)(=O)=O [Example 179, N-[5-[4-(4-cyano-3-fluorophenyl)piperidine-1-carbonyl]-2-methylphenyl]methanesulfonamide] | 85% | 
Cc1ccc(C(=O)N2CCC(c3ccc(C#N)cc3)CC2)cc1NS(=O)(=O)CC1CCCC1 [Example 16, N-[5-[4-(4-cyanophenyl)piperidine-1-carbonyl]-2-methyl-phenyl]-1-cyclopentyl-methanesulfonamide] | 95% | 

Reference: patent US20090105305A1, “Therapeutic Agents - 550” (AstraZeneca AB, priority 2006, published 2009)
